Results reported in the supplement of paper PMC4862054.

Tests used:
Details in all cases: incubation time: 72 h
CAL-120 [1] = experiment: normalised response (% of control), CellTiter-Glo; higher = more viable cells (100 = DMSO, 0 = benzethonium chloride kill control)
Summary of the method: (§1)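 After 72 h with compound in 384-well plates, breast cancer cell lines seeded as 20 µl suspension were read for CellTox Green fluorescence at 485/520 nm. CellTiter-Glo luminescence was then read after 10 min at room temperature. Compound was present at 5 concentrations in 10-fold steps over a 10,000-fold range set per compound, and plates were normalised to 0.1 % DMSO (100) and a positive kill control (0). Values are normalised signals, each at a single concentration.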

MFM-223 [2] = experiment: as above
Summary of the method: as §1

MDA-MB-468 = experiment: as above
Summary of the method: as §1

MDA-MB-453 [3] = experiment: as above
Summary of the method: as §1

HCC1599 [4] = experiment: as above
Summary of the method: as §1

HCC1143 [5] = experiment: normalised response (% of control), CellTox Green; higher = less cell death (100 = DMSO, 0 = benzethonium chloride kill control)
Summary of the method: as §1

CAL-51 [6] = experiment: normalised viability (% of control), CellTiter-Blue; higher = more viable cells (about 100 = DMSO control)
Summary of the method: (§2)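 Breast cancer cell lines were treated for 72 h in 384-well format and measured by CellTiter-Blue fluorescence at 560/590 nm. Results were normalised per plate to vehicle (100) and a positive kill control (0). The entry is normalised viability at a single listed concentration of the series.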

CAL-85-1 [7] = experiment: as above
Summary of the method: as §2

HDQ-P1 = experiment: as above
Summary of the method: as §2

DU-4475 [8] = experiment: as above
Summary of the method: as §2

CAL-148 [9] = experiment: as above
Summary of the method: as §2

MDA-MB-453 [10] = experiment: as above
Summary of the method: as §2

CAL-51 [11] = experiment: drug sensitivity score (DSS), CellTox Green (DSS (AUC-based score)); higher = stronger drug effect (viability inhibition or cytotoxicity); extreme values may be limits of the assay
Summary of the method: (§3)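 Each compound occupied 5 concentrations in 10-fold steps over its own 10,000-fold range in 384-well plates, into which breast cancer cell lines were seeded as 20 µl suspension. Following 72 h of incubation, CellTox Green fluorescence (485/520 nm) was measured, and CellTiter-Glo luminescence was measured after 10 min at room temperature. Plates were individually normalised to 0.1 % DMSO and a positive kill control. From the area under the fitted dose-response curve, a drug sensitivity score was calculated.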

MDA-MB-231 = experiment: as above
Summary of the method: as §3

CAL-120 [12] = experiment: as above
Summary of the method: as §3

MFM-223 [13] = experiment: as above
Summary of the method: as §3

CAL-85-1 [14] = experiment: as above
Summary of the method: as §3

BT-474 = experiment: as above
Summary of the method: as §3

MDA-MB-436 = experiment: as above
Summary of the method: as §3

Hs578T = experiment: as above
Summary of the method: as §3

DU-4475 [15] = experiment: as above
Summary of the method: as §3

MCF-10A = experiment: as above
Summary of the method: as §3

CAL-148 [16] = experiment: as above
Summary of the method: as §3

HCC1143 [17] = experiment: as above
Summary of the method: as §3

HCC1599 [18] = experiment: as above
Summary of the method: as §3

COc1cc([C@@H]2c3cc4c(cc3[C@@H](O[C@@H]3O[C@@H]5CO[C@@H](C)O[C@H]5[C@H](O)[C@H]3O)[C@H]3COC(=O)[C@H]23)OCO4)cc(OC)c1O [Etoposide] (10000 nM)
normalised response (CAL-120 [1]): 73.7% | normalised response (MFM-223 [2]): 90.8% | normalised response (MDA-MB-468): 38.5% | normalised response (MDA-MB-453 [3]): 142% | normalised response (HCC1599 [4]): 11.8% | normalised response (HCC1143 [5]): 98.3% | normalised viability (CAL-51 [6]): 18.4% | normalised viability (CAL-85-1 [7]): 63.1% | normalised viability (HDQ-P1): 62.6% | normalised viability (DU-4475 [8]): 4.57% | normalised viability (CAL-148 [9]): 31.7% | normalised viability (MDA-MB-453 [10]): 61.4%

CN(N=O)C(=O)N[C@@H](C=O)[C@@H](O)[C@H](O)[C@H](O)CO [Streptozocin] (10000 nM)
normalised response (CAL-120 [1]): 109% | normalised response (MFM-223 [2]): 106% | normalised response (MDA-MB-468): 104% | normalised response (MDA-MB-453 [3]): 95.6% | normalised response (HCC1599 [4]): 92.5% | normalised viability (CAL-51 [6]): 101% | normalised viability (CAL-85-1 [7]): 91.1% | normalised viability (HDQ-P1): 122% | normalised viability (DU-4475 [8]): 92.6% | normalised viability (CAL-148 [9]): 105% | normalised viability (MDA-MB-453 [10]): 99.1%

CC(=O)Nc1ccc(C(=O)Nc2ccccc2N)cc1 [Tacedinaline]
drug sensitivity score (CAL-51 [11]): 0 | drug sensitivity score (MDA-MB-231): 0 | drug sensitivity score (CAL-120 [12]): 0 | drug sensitivity score (MFM-223 [13]): 0 | drug sensitivity score (CAL-85-1 [14]): 0 | drug sensitivity score (BT-474): 0 | drug sensitivity score (MDA-MB-436): 0 | drug sensitivity score (Hs578T): 0 | drug sensitivity score (DU-4475 [15]): 0 | drug sensitivity score (MCF-10A): 0 | drug sensitivity score (CAL-148 [16]): 0 | drug sensitivity score (HCC1143 [17]): 0 | drug sensitivity score (HCC1599 [18]): 0

CCC1=C[C@@H]2CN(C1)Cc1c([nH]c3ccccc13)[C@@](C(=O)OC)(c1cc3c(cc1OC)N(C)[C@H]1[C@@](O)(C(=O)OC)[C@H](OC(C)=O)[C@]4(CC)C=CCN5CC[C@]31[C@@H]54)C2 [Vinorelbine] (10000 nM)
normalised response (CAL-120 [1]): 54% | normalised response (MFM-223 [2]): 39.6% | normalised response (MDA-MB-468): 18.1% | normalised response (MDA-MB-453 [3]): 53.8% | normalised response (HCC1599 [4]): 4.45% | normalised response (HCC1143 [5]): 106% | normalised viability (CAL-51 [6]): 11.5% | normalised viability (CAL-85-1 [7]): 44.2% | normalised viability (HDQ-P1): 38.9% | normalised viability (DU-4475 [8]): 9.67% | normalised viability (CAL-148 [9]): 30.3% | normalised viability (MDA-MB-453 [10]): 29.4%
